From PMC8220105 (Computational and Structural Biotechnology Journal, 2021)

Target: p38α MAPK (Homo sapiens, UniProt Q16539)
Experiment: microscale thermophoresis
Assay type: binding

p38α MAPK, sequence (Q16539 2-360): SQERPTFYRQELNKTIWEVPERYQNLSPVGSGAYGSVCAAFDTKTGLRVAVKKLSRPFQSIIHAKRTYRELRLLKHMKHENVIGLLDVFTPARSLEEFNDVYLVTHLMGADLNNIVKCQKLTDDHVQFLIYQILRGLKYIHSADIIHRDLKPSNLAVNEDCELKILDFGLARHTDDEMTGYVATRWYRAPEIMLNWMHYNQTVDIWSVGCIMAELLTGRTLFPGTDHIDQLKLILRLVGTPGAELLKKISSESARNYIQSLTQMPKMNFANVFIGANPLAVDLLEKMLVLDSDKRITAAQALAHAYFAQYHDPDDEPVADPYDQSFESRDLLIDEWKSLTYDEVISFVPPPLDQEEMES

- Kd: 0.031 µM
SMILES: COC(=O)[C@@]12OC[C@]34[C@H]([C@@H](O)[C@@H]1O)[C@@]1(C)CC(=O)C(O)=C(C)[C@@H]1C[C@H]3OC(=O)[C@H](OC(=O)CC(C)C)[C@@H]24 [bruceine A]
